Consider one compound from PMC3501516, “Anti-Diabetic Efficacy and Impact on Amino Acid Metabolism of GRA1, a Novel Small-Molecule Glucagon Receptor Antagonist” (PLoS ONE, 2012).

Each structure is given as a SMILES string.

A short description of data set [1]: Pharmacokinetics / plasma GRA1 concentrations in hGCGR mice. The data set is classed as in vivo. The note with it: mouse. The method, then:
Under control conditions, hGCGR mice were normoglycemic and treatment of these animals with GRA1 lowered blood glucose concentrations only moderately.
Figure 2 In vivo inhibition of hepatic ^125I-glucagon binding in the hGCGR mouse following (A) acute and (B) chronic dosing with GRA1. The data are mean (±SEM) percent reductions in liver ^125I-glucagon content measured (A) 1, 3, 5, and 8 h after a single oral dose of 3 mg/kg GRA1, and (B) after treatment for 30 days with control diet or food/drug admixtures that provided 3, 6, 10, or 30 mg/kg·day GRA1. Pharmacokinetic analysis performed during the experiment in (A) determined that mean plasma GRA1 concentrations were 0.5, 0.6, 0.5, and 0.7 µM at 1, 3, 5, and 8 h postdose, respectively. TEXT PRINTED IN THE PICTURE: (A) no label printed: Receptor occupancy (%): 64% (Time postdose (h): 1); Receptor occupancy (%): 71% (Time postdose (h): 3); Receptor occupancy (%): 65% (Time postdose (h): 5); Receptor occupancy (%): 73% (Time postdose (h): 8) | (B) no label printed: Receptor occupancy (%): 71% (Dose (mg/kg): 3); Receptor occupancy (%): 78% (Dose (mg/kg): 6); Receptor occupancy (%): 83% (Dose (mg/kg): 10); Receptor occupancy (%): 93% (Dose (mg/kg): 30)
Figure 3 Blunting of glucagon-induced blood glucose excursions by GRA1 treatment in the (A) hGCGR mouse and (B) rhesus monkey. In (A), mice (n = 8) were administered vehicle or 3, 10 or 30 mg/kg GRA1, then challenged 1 h later (time 0) by intraperitoneal injection of 15 µg/kg glucagon or vehicle. Pharmacokinetic analysis determined that these animals had mean plasma GRA1 concentrations of 0.4, 0.9, and 4.7 µM, respectively, at 1 h postdose. In (B), monkeys (n = 4) were administered 1 mg/kg GRA1 4 h prior to intramuscular injection of 15 µg/kg glucagon or vehicle. At 1 h postdose, the mean plasma GRA1 concentration in these animals was 0.2 µM. *p<0.05; **p<0.01; and ***p<0.001 vs. glucagon-treated control animals.

The nature of the next data set: in vivo. The note with it: hGCGR.ob/ob, mouse, 3 mg/kg.
The test system of data set [2] is perfused liver from hGCGR mice. Briefly: Glucagon-stimulated glycogenolysis in perfused liver from hGCGR mouse (13C NMR). The note with it: 50 pM glucagon.
Method: Glycogen content of perfused hGCGR mouse liver was measured as previously described [30]. In brief, livers were perfused ex vivo with Ringers solution containing 6.7 mM [2-^13C]pyruvate while ^13C content (indicative of accumulated [^13C]glycogen) was monitored dynamically by nuclear magnetic resonance imaging.
The nature of data set [3]: Pharmacokinetics / plasma GRA1 concentrations in hGCGR mice. The format is in vivo, hGCGR mouse. Conditions: single oral dose 2 mg/kg.
Data set [4] concerns primary human hepatocytes. The data set is described as follows: Glucagon-stimulated glycogenolysis in primary human hepatocytes. The format is cell-based. Conditions: 1 h. The method, then: Figure 1 GRA1 inhibits glucagon-mediated glycogenolysis in vitro and ex-vivo. (A) The chemical structure of GRA1. (B) Dose-dependent inhibition of glucagon-stimulated glycogenolysis in human hepatocytes. The cells were pretreated for 3 h with 200 nM insulin and then challenged with 2 nM glucagon with vehicle (Veh, medium with 1% DMSO) or 0.3–10 µM GRA1. Glycogen content was measured after incubating for 1 h. *p<0.05 and **p<0.01 vs. glucagon+vehicle alone. (C) Inhibition of glucagon-stimulated glycogenolysis in perfused liver prepared from the hGCGR mouse. Livers were perfused with Ringers solution containing 6.7 mM [2-^13C]pyruvate while ^13C content (indicative of accumulated [^13C]glycogen) was monitored dynamically by nuclear magnetic resonance imaging. At time = −22 min, 0.1–3.0 uM GRA1 or vehicle was added to the perfusate; 50 pM glucagon or vehicle was added at time 0. The data are means ±SEM.
Transfected Chinese hamster ovary (CHO) cell lines were acquired and maintained as previously described, [20]. These included separate cell lines stably expressing human GCGR (hGCGR), mouse GCGR, rhesus GGCR, glucose-dependent insulinotropic peptide receptor (GIPR), GLP-1 receptor (GLP-1R), pituitary adenylate cyclase-activating polypeptide receptor type 1 (PAC1R), and vasoactive adenylate cyclase-activating polypeptide receptor type 2 (VPAC2R). […]

The target of data set [5] is T1, VPAC2R (vasoactive adenylate cyclase-activating polypeptide receptor type 2) (Homo sapiens, UniProt P41587).
T1 construct: expressed in transfected cells
T1 sequence (P41587 24-438): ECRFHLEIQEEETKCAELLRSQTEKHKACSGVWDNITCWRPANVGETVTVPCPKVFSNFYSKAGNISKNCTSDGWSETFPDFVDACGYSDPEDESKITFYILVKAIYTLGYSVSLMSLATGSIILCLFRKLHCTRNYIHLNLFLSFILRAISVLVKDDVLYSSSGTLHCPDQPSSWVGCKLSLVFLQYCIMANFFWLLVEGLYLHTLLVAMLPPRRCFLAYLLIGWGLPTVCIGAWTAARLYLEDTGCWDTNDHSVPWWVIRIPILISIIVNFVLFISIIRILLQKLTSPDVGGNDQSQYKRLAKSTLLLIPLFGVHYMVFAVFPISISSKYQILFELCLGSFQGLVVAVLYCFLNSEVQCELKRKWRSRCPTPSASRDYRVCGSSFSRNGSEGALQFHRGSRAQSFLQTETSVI
Briefly: Inhibition of agonist-stimulated cAMP production in CHO cells expressing VPAC2R. The format is cell-based. Conditions: VPAC2-stimulated. The text has this: Transfected Chinese hamster ovary (CHO) cell lines were acquired and maintained as previously described, [20]. These included separate cell lines stably expressing human GCGR (hGCGR), mouse GCGR, rhesus GGCR, glucose-dependent insulinotropic peptide receptor (GIPR), GLP-1 receptor (GLP-1R), pituitary adenylate cyclase-activating polypeptide receptor type 1 (PAC1R), and vasoactive adenylate cyclase-activating polypeptide receptor type 2 (VPAC2R). Inhibition of glucagon binding to hGCGR was assayed in cell membranes prepared from the line of CHO cells that expressed the hGCGR. Functional antagonism was assayed by measuring the production of cAMP in intact CHO cells stimulated by agonists specific for their cognate receptors (i.e., glucagon for GCGR-expressing cell lines, GIP for the GIPR-expressing line, etc.). Primary human hepatocytes were obtained from In Vitro Technologies (Baltimore, MD) and glucagon-stimulated glycogenolysis was studied in these as previously described.

For the compound `COc1ccc2cc(-c3cc(-c4cc(C(F)(F)F)ccc4F)nn3[C@@H](C)c3ccc(C(=O)NCCC(=O)O)cc3)ccc2c1` [GRA1, N-[4-((1S)-1-{3-(2-fluoro-5-trifluoromethylphenyl)-5-[6-methoxynaphth-2-yl]-1H-pyrazol-1-yl}ethyl)benzoyl]-β-alanine], the concentration at 1 h was determined as 400 nM in data set [1] (oral, 3 mg/kg p.o., 1 h postdose (glucagon challenge)); 900 nM in data set [1] (oral, 10 mg/kg p.o., 1 h postdose (glucagon challenge)); 4700 nM in data set [1] (oral, 30 mg/kg p.o., 1 h postdose (glucagon challenge)); 500 nM in data set [1] (single oral 3 mg/kg, 1 h postdose (occupancy experiment)); 1120 ± 800 nM in “in vivo”. The concentration at 3 h stood at 600 nM in data set [1] (single oral 3 mg/kg, 3 h postdose (occupancy experiment)) and 920 ± 100 nM in “in vivo”. In data set [1] (single oral 3 mg/kg, 5 h postdose (occupancy experiment)), the concentration at 5 h came to 500 nM. In data set [1] (single oral 3 mg/kg, 8 h postdose (occupancy experiment)), this compound came in with a concentration at 8 h of 700 nM. In data set [2] (0.3 µM GRA1 pretreatment), the “Reduction of hepatic response to glucagon (13C glycogen loss)” value is “about 50%”. Besides, the “Hepatic response to glucagon (13C glycogen loss)” value in data set [2] (1 µM GRA1 pretreatment) and in data set [2] (3 µM GRA1 pretreatment) was “completely prevented” throughout. Further, the half-life in data set [3] (mouse, plasma, read-out: Apparent plasma terminal half-life (converted)) was 6.8 h. Also, the “Mean rate of absorption from the gut” value in data set [3] stood at 69%. The Route of excretion entry in data set [3] is given as “nearly all absorbed drug was subsequently excreted unchanged via the bile”. Also, the “Inhibition of glucagon-induced glycogen loss” value in data set [4] (10 µM GRA1, 2 nM glucagon) is listed as “completely prevented”. The inhibition at 0.3 µM in data set [4] (Homo sapiens, Hepatocyte, 0.3 µM GRA1, 2 nM glucagon, read-out: Inhibition of glucagon-induced glycogen loss) is ~50%. The compound also returned an IC50 in data set [5] of 4.2 µM.
